Laboratory results taken from publication PMC7076672, “Improving the Oral Bioavailability of an Anti-Glioma Prodrug CAT3 Using Novel Solid Lipid Nanoparticles Containing Oleic Acid-CAT3 Conjugates” (Pharmaceutics, 2020).
Where two headings read alike, the source gives them in different places.

Experiments:
human cell lines = details: versus pro-drug CAT3; cited from earlier work
P-gp = tested on: P-gp; parameters: method as in PMID 25936609, PMID 35547992; details: cited from earlier work
[1] = In vitro release under simulated gastrointestinal conditions (dialysis bag); assay type: physicochemical; details: 0.1% SDS medium, 37 °C
Method: Drug release from SLN was monitored in vitro under simulated gastrointestinal conditions. The tests were performed by placing 2 mL SLN samples (containing 2 mg CAT3) into 400 mL of the dissolution medium maintained at 37 °C. The dissolution media contained 0.1% SDS (w/v) to meet sink conditions. Preswollen 8–10 kDa MWCO dialysis bags (Sigma-Aldrich, Madrid, Spain), which contained 5 mL of the blank SDS solution with the same concentration, were placed into the dissolution flask (n = 3). The release behavior of CAT3 was compared under the same condition by placing 5 mg CAT3 powder into the 1000 mL media. The samples (1 mL) were withdrawn at predetermined time points from the dialysis bags and replaced with the same amount of fresh medium maintained at 37 °C. The samples were centrifuged for 5 min at 12,000 rpm, and the resultant supernatants were quantified for drug content. The samples were protected from light during the experiments. The DDsolver software was used to evaluate the drug-release kinetics. An Excel worksheet (Microsoft Corporation, Redmond, WA, USA) was used to control the computing method for comparison with the results obtained using the DDSolver program. According to the example format for each built-in module of the DDSolver, all data were entered into Excel. The relevant parameters were calculated following the step-by-step equations utilizing an Excel spreadsheet.

C6 glioma cells = assay: In vitro cytotoxicity analysis (MTT assay); assay type: cell-based; details: 0.64 ng/mL
Method: Cytotoxicity of the CAT3 suspension, OA-CAT3-SLN, and blank SLN against the C6 brain glioma cell line was measured by 3-(4,5-dimethylthiazol-2-yl)-2,5 diphenyltetrazolium bromide (MTT) assay. Briefly, the cells were seeded into 96-well plates at a cell density of 2 × 10^4 cells/mL (100 μL/well). After 24 h of incubation, the cells were further incubated for 24, 48, and 72 h in fresh DMEM complete medium containing 0.64 ng/mL CAT3 suspension, OA-CAT3-SLN, or the blank SLN, respectively. At the above-mentioned time points, the culture medium was replaced by the MTT solution (0.5 mg/mL, 200 μL/well), followed by incubation for further 4 h. The supernatant was removed and 100 μL of DMSO solution was added to the wells. The absorbance values of each well were measured at 570 nm using a microplate reader (Synergy H1 Hybrid Multi-Mode Microplate Reader, BioTek, Winooski, VT, USA).

[2] = Transepithelial transport study; assay type: in vitro ADME, canine; details: dog, MDCK-MDR1, 37 °C, n = 3
Method: The permeabilities of CAT3 and OA-CAT3-SLN were investigated on an MDCK-MDR1 cell monolayer. MDCK-MDR1 cells were seeded onto 12-well transwell® filter inserts (pore size 0.4 μm, surface area 1.12 cm^2; Corning Incorporated, Corning, NY, USA) at a density of 2 × 10^5 cells/well. The culture medium was changed every 24 h for seven days, and the cell monolayers with a transepithelial electrical resistance (TEER) above 110 Ω·cm^2 were used for the transport experiments. Prior to performing the TEER test, the culture medium was removed, and the monolayer was pre-incubated with 0.5 mL of Hanks’ balanced salt solution (HBSS) for 20 min at 37 °C. […]
To investigate the mechanism of cellular internalization of OA-CAT3-SLN, various specific endocytic inhibitors were evaluated in the uptake study. […]
The amount of CAT3 or OA-CAT3-SLN that permeated that through the monolayer was determined using the liquid chromatography-mass spectrometry (LC-MS/MS) system. The apparent permeability coefficient (Papp) of CAT3 or OA-CAT3-SLN was calculated according to the following equation: Papp = dQ/dt × 1/(A × C0), where dQ/dt indicates the linear appearance rate of mass at the BL side (μmol/s), C0 is the initial concentration of CAT3 or OA-CAT3-SLN on the AP side (μmol/mL), and A is the surface area of the monolayer (cm^2).

SMILES | in vitro antitumor activity, times greater than CAT3 (human cell lines) | P-gp substrate (P-gp) | CAT3 released in the first 24 h [1] | viability at 0.00064 µg/mL (C6 glioma cells; 24 h, n = 3, read-out: cell viability 24 h) | viability at 0.00064 µg/mL (C6 glioma cells; 48 h, n = 3, read-out: cell viability 48 h) | viability at 0.00064 µg/mL (C6 glioma cells; 72 h, n = 3, read-out: cell viability 72 h) | Papp A→B at 2 h, 100 ng/mL [2]
COc1cc2c3c(c4ccc(O)cc4c2cc1OC)C[C@@H]1CCCN1C3 [PF403, 13a(S)-3-hydroxyl-6,7-dimethoxyphenanthro(9,10-b)-indolizidine] | about 1000 times | substrate of P-gp |  |  |  |  | 
COc1cc2c3c(c4ccc(OC(=O)C(C)(C)C)cc4c2cc1OC)C[C@@H]1CCCN1C3 [CAT3, 13a-(S)-3-pivaloyloxyl-6,7-dimethoxyphenanthro(9,10-b)-indolizidine] |  |  | more than 80% | 81.2% | 46.2% | 16.5% | 0.106 ± 0.0289 ×10⁻⁶ cm/s
